One compound from patent publication US20160304970A1, “GENE BIOMARKER TO DIAGNOSE METASTIC LIVER CANCER AND METHODS FOR TARGETING THE SAME” (University of Southern California, priority 2015, published 2016) can be followed below.

The subject of series [1] is CD133 (+) Huh7 cells. The series is described as follows: CD133 cell viability screening (luminescence, CellTiter-Glo). As to conditions: Homo sapiens, Huh-7. The series is classed as cell-based. The protocol: (§1) CD133(+) and CD133(−) Huh7 cells were freshly sorted using the MACS CD133 micro bead kit (Miltenyi Biotec, 130-050-801) and were seeded in 100 μl medium containing 5000 cells per well in a 96-well plate. Once the cells attached, the FDA approved drug library was added to each well to a final concentration of 20 μg/ml in duplicate. After incubation for 48 hours, the cell viability was determined by a luminescence assay. […] After 16 hours, 1 μl of a […] drug solution was individually added to the 96 wells, resulting in a 20 μg/ml final concentration for most compounds. After 48 hours, CellTiter-Glo® Reagent (G8233, Promega) was added and the luminescence signal was measured with an automated plate reader. The raw data for each well was background-corrected by DMSO control wells on the same plate.
Freshly sorted CD133 (+) Huh7 or mouse TICs were plated in 100 μl of medium containing 5000 cells per well in a 96-well plate. After 16 hours, 0.5 μl of a 2 μg/ml, 1 μg/ml, 0.2 μg/ml, 0.1 μg/ml, 0.02 μg/ml, or 0.01 μg/ml compound was added to each well in triplicate, resulting in a 10 μg/ml, 5 μg/ml, 1 μg/ml, 0.5 μg/ml, 0.1 μg/ml, and 0.05 μg/ml final concentration for most compounds, respectively. After 48 hours, the cells were either measured for cell viability by Cell-Glo® Reagent (Promega), or fixed with 1% PFA (paraformaldehyde) and stained with DAPI for high-throughput screening.

Assay in series [2]: as above
It is filed as cell-based. As to conditions: human, CD133 (−) Huh7 cells (freshly MACS-sorted). The method, then:
as §1

Series [3] has as its system CD133 (+) Huh7 cells. Nature of the series: Tumor spheroid formation assay. It is filed as cell-based, human. As to conditions: CD133 (+) group; ATRA 5 μg/ml, SAHA 0.5 μg/ml; 2 weeks. The protocol: Freshly sorted CD133(+)/(−) Huh7 cells were plated in a low binding culture plate (NUNC 145397) containing 100 cells per well in 100 μl of culture medium with ATRA (5 μg/ml), SAHA (0.5 μg/ml), or a combination of both. After 2 weeks, colony numbers were counted.

Series [4] concerns CD133 (+) Huh7 cells. Nature of the series: Anchorage-independent growth assay in soft agar. It is filed as cell-based, human. The conditions noted are these: retinoic acid 5 μg/ml, SAHA 0.5 μg/ml; 2 weeks. The method, then: Freshly sorted CD133 (+)/(−) Huh7 cells were mixed with 0.35% agarose containing 1000 cells per well in culture medium with retinoic acid (5 μg/ml), SAHA (0.5 μg/ml), or a combination of both. After 2 weeks, the colony numbers were counted.

Series [5] deals with TICs. Nature of the series: Annexin V-PI staining and caspase activity analysis. As to conditions: 6 and 12 hours; p<0.05. The series is classed as cell-based. The method, then: Annexin V staining was performed according to the manufacturer's instructions (A35110, Invitrogen). In brief, after drug treatment, the cells were washed twice with ice-cold phosphate-buffered saline (PBS) and detached by trypsin/EDTA. The cells were then incubated with 5 μl of Annexin V-APC in a 100 μl of cell suspension at room temperature for 15 minutes. After incubation, the cells were mixed with propidium iodide solution and analyzed by flow cytometry.
The caspase activity assay was performed according to the manufacturer's instructions (G8090, G8200, and G8210, Promega). In brief, 10,000 cells were plated into each well of a 96-well plate. After the cells attached, the drugs (5 μg/ml of ATRA and 0.5 μg/ml of SAHA) were added to each well and incubated for 6, 12, 16, and 24 hours. After incubation, the Caspase-Glo® substrate reagent was added to each well followed by incubation for 30 minutes. After incubation, the luminescence signal was measured with a luminometer.

Series [6] has as its system CD133 (+) Huh7 cells. The series is described as follows: In vivo tumorigenicity, CD133 (+) Huh7 cells in NOG mice. Details: species or system mouse. The protocol:
The TUNEL staining was performed according to the manufacturer's instructions (4810-30-K, TREVIGEN). In brief, paraffin-embedded tumor sections from each group were de-paraffinized, re-hydrated, and washed twice in PBS. Samples were covered with Proteinase K solution for 30 minutes at room temperature and then washed two times in deionized water. Slides were immersed in quenching solution for 5 minutes at room temperature and then washed in PBS. Slides were incubated in TdT labeling buffer for 5 minutes, immersed with labeling reaction mix, and incubated at 37° C. for 1 hour in a humidity chamber. Samples were immersed in TdT stop buffer for 5 minutes and then washed twice in deionized water for 5 minutes each at room temperature. Samples were covered with Strep-HRP solution and incubated for 10 minutes at 37° C. and washed twice in PBS. Samples were incubated in DAB solution for 5 minutes and then washed in deionized water several times. The samples were counterstained with Methyl Green and mounted on slides for observation.
CD133 was conjugated to the terminal amine functionality on a polyethylene glycol block of polylactide-polyethylene glycol (PLA-PEG) as previously described (Swaminathan et al., 2013). PLGA (30 mg) was dissolved in 1 ml chloroform containing ATRA (6 mg). An oil-in-water emulsion was formed by emulsifying the polymer drug solution in 6 ml of 2.5% w/v aqueous PVA solution by sonication (Sonicator®XL, Misonix, N.Y.) for 5 minutes in an ice bath. The PLA-PEG-CD133 conjugate was dissolved in chloroform (8 mg/100 μl) and added to the oil-in-water emulsion with stirring. The emulsion was stirred for 18 hours at ambient conditions followed by 2 hours under vacuum to remove residual chloroform. Nanoparticles were recovered by ultracentrifugation (35,000 rpm for 35 minutes at 4° C.; OptimaTMLE-80K, Beckman, Palo Alta, Calif.) and washed three times with deionized water to remove excess PVA and unencapsulated drugs. The nanoparticle suspension was then lyophilized (Labconco, FreeZone 4.5, Kansas City, Mo.). Before injection, the lyophilized nanoparticles were re-dissolved in PBS and filtered with a 0.22 micron filter.
A half million freshly sorted CD133 (+) TICs were suspended in 100 μl of Matrigel™ (BD) and injected subcutaneously into NOD/Shi-scid/IL-2Rγ^null(NOG) mice, six mice per group. After the tumor volume reached 100 mm^3, animals received one intravenous dose of CD133-conjugated RA nanoparticle (5 μg/ml) and SAHA (0.5 μg/ml) daily. The animals were monitored regularly for tumor growth and survival every day. All animals work was performed according to national and international guidelines. Animal studies were based on a protocol approved by the Institutional Animal Care and Use Committee at University of Southern California.

[7] abbreviates: NOG mice, CD133 (+) Huh7 tumors.

“And” between values parts separate entries of the source, which are not always exact repeats. Equal entries are not always repeated.

In the case of `CC1=C(/C=C/C(C)=C/C=C/C(C)=C/C(=O)O)C(C)(C)CCC1` [ATRA, all-trans retinoic acid], the viability (usually a per cent measure of how many cells are alive, often set against a control) at 20 µg/mL in series [1] (20 μg/ml, 48 hours) is 41.4%. Further, the IC50 (in general, the concentration that inhibits the measured activity by half) in series [1] (CD133 killing effect, FIG. 44A) is 4.06 µg/mL and 13.5 µM. In series [2], this compound had a viability at 48 h, 20 μg/ml of 72%. Further, the “reduction of colony numbers, tumor spheroid formation” value in series [3] was found to be 83%. For the same compound, in series [4], the “reduction of colony numbers, anchorage independent growth in soft agar” value was found to be 50%. Also, the “caspase-8 (extrinsic) and caspase-9 (intrinsic) pathway activity” value in series [5] is given as “induced both”. The tumor growth entry in series [6] (ATRA 5 μg/ml in CD133 antibody-conjugated nanoparticles, SAHA 0.5 μg/ml, after 4 days of treatment) was “did not reduce or even promote tumor growth”. Also, in series [6] (setting [7]), the “TUNEL staining of tumors” value was “TUNEL-positive tumor cells”; the “tumor morphology, hematoxylin and eosin stained sections” value is “necrotic regions”.
